# Test results taken from patent publication US20060223994A1, “Novel polymorph of Quetiapine fumarate and a process for its preparation” (Divi's Laboratories Limited, priority 2005, published 2006).
# Legend:
# [1] = Stability on melting and cooling (air; NMR, IR, HPLC comparison)
# [2] = Stability of Form IV under grinding (powder XRD and FT-IR after grinding); details: ground in glass pestle and mortar for 15 min
smiles,measurement,setting,value
OCCOCCN1CCN(C2=Nc3ccccc3Sc3ccccc32)CC1 [Form IV],chemical nature after heating,"[1]; confirmed by NMR, IR, HPLC retention time and assay versus sample prepared per U.S. Pat. No. 4,879,288",does not also alter its chemical nature
same,oxidative degradation on melting and cooling,[1]; melting and cooling in air,no significant degradation
same,XRD pattern and FT-IR spectrum of the material after grinding,[2],identical to the form IV
